Here are results for five molecules from patent US7186840B2, “Quinoline derivatives as anti-inflammatory agents” (Roche Palo Alto LLC, priority 2000, dated 2007).

The target of one experiment is T1, COX I (Homo sapiens, UniProt P23219).
T1 construct: made in house
The experiment in a line: Inhibition of COX I in vitro (radiometric assay). The experiment is classed as biochemical. To be noted: partially purified enzyme, 10 min preincubation, 20 micromolar [14C]arachidonic acid. As for the experimental part:
(§1) The COX I and COX II inhibitory activity of compounds of this invention in vitro was determined using partially purified COX I and COX II enzymes, prepared as described in J. Barnett et. al., Biochim Biophys. Acta, 1209, 130–139 (1994).
(§2) COX I and COX II samples were diluted with Tris-HCl buffer (50 mM Tris-HCl, pH 7.9) containing 2 mM EDTA and 10% glycerol and reconstituted by incubating first with 2 mM phenol for 5 minutes and then with 1 micromolar hematin for an additional 5 minutes. 125 μl of the reconstituted COX I or COX II enzyme were preincubated for 10 minutes at room temperature in a shaking water bath with the compounds of the invention dissolved in 2–15 μl of DMSO or the carrier vehicles (control samples). The enzyme reaction was initiated by adding 25 μl of 1-[14 C]arachidonic acid (80,000–100,000 cpm/tube; 20 micromolar final concentration) and the reaction was allowed to continue for an additional 45 seconds. The reaction was terminated by adding 100 μl of 2N HCl and 750 μl water. An aliquot (950 μl) of the reaction mixture was loaded onto a 1 mL C18 Sep-Pak column (J. T. Baker, Phillipsburg, N.J.) which had been previously washed with 2–3 mL methanol and equilibrated with 5–6 mL distilled water. Oxygenated products were quantitatively eluted with 3 mL of acetonitrile/water/acetic acid (50:50:0.1, v/v) and the radioactivity in the eluate determined in a scintillation counter.
(§3) The COX inhibitory activities (expressed as IC50, the concentration causing 50% inhibition of the COX enzyme being assayed) of some exemplary compounds of the invention were: […]

The target in another experiment is T2, COX II (Homo sapiens, UniProt P35354).
T2 construct: made in house
T2 sequence (P35354 18-604): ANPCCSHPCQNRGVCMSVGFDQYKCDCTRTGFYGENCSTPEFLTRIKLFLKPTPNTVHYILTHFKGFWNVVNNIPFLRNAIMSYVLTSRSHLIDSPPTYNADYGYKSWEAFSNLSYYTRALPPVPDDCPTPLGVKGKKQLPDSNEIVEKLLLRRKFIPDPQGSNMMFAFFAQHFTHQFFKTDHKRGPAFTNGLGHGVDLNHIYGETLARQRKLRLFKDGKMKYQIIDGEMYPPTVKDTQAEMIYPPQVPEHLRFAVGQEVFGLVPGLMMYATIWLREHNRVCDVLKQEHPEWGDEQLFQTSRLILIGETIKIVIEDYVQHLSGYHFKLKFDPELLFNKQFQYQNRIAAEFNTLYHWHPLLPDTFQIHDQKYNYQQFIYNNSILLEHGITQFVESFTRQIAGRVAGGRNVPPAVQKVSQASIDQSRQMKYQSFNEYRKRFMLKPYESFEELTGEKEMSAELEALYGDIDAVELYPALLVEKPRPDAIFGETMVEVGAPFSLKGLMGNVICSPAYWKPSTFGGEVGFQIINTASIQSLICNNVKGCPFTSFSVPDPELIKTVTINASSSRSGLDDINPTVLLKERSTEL
The experiment can be described thus: Inhibition of COX II in vitro (radiometric assay). The experiment is classed as biochemical. To be noted: partially purified enzyme, 10 min preincubation, 20 micromolar [14C]arachidonic acid. As for the experimental part: as §1, §2, §3

What is called IC50 is the midpoint of a concentration-inhibition curve. A high value points to lower potency.

Structures are written as SMILES.

T1 sequence (P23219 24-599): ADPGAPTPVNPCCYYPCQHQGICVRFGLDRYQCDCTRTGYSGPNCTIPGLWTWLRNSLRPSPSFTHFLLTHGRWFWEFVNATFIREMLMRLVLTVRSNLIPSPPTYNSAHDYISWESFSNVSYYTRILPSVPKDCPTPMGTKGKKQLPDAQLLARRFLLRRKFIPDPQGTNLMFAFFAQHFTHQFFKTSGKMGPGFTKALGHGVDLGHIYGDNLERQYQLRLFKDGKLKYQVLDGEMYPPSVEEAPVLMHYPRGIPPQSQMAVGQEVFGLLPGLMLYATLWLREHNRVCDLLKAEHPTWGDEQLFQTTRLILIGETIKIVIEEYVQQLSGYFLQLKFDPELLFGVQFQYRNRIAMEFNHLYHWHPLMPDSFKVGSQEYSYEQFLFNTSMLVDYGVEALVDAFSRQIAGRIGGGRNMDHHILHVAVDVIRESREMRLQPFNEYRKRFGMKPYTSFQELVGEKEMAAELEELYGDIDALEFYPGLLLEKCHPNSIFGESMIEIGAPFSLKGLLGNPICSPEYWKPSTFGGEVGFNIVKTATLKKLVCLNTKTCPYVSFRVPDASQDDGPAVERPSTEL

As to `COc1ccc2nc(S(C)(=O)=O)ccc2c1Sc1ccc(F)cc1F` [Cpd 101, 5-(2,4-Difluoro-phenylsulfanyl)-2-methanesulfonyl-6-methoxy-quinoline], the IC50 was greater than 40 µM on COX I and less than 0.2 µM at COX II.
`COc1ccc2nc(S(C)(=O)=O)ccc2c1Sc1ccccc1Cl` [Cpd 104, 5-(2-chloro-phenylsulfanyl)-2-methanesulfonyl-6-methoxy-quinoline]: the concentration for half-maximal inhibition (IC50) was greater than 40 µM at COX I and less than 0.2 µM against COX II.
Take `COc1ccc2nc(S(C)(=O)=O)ccc2c1Sc1ccc(F)cc1Cl` [Cpd 105, 5-(2-chloro-4-fluoro-phenylsulfanyl)-2-methanesulfonyl-6-methoxy-quinoline]: the half-inhibitory concentration (IC50) at COX I was greater than 40 µM; on COX II, less than 0.2 µM.
Take `COc1ccc2nc(S(C)(=O)=O)ccc2c1Sc1ccc(Br)cc1` [Cpd 106, 5-(4-bromo-phenylsulfanyl)-2-methanesulfonyl-6-methoxy-quinoline]: the half-maximal inhibitory concentration (IC50) against COX I was greater than 40 µM; at COX II it was less than 0.3 µM.
In the case of `COc1ccc2nc(S(C)(=O)=O)ccc2c1Sc1ccc(Cl)cc1Cl` [Cpd 107, 5-(2,4-dichloro-phenylsulfanyl)-2-methanesulfonyl-6-methoxy-quinoline], the half-inhibitory concentration (IC50) is greater than 40 µM on COX I and less than 0.3 µM against COX II.
